We go through 1 molecule from patent US4582821A, “Inhibition of cyclic nucleotide independent protein kinases” (E. I. Du Pont de Nemours and Company, priority 1983, dated 1986).

Experiment [1] concerns A-431 plasma membrane extracts (EGF-mediated protein phosphorylation). Description: Protein phosphorylation in solubilized A-431 plasma membrane extracts, with or without EGF. The format is biochemical, human. A digest of the protocol: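 Triton X-100-solubilized A-431 plasma membranes (15-150 μg protein) in 20 mM Hepes pH 7.4 with 1 mM MnCl2, ± 100 ng EGF, preincubated with compound 10 min at ~23°, then 10 min at 0°. Phosphorylation started with 15 μM [γ-32P]ATP, stopped after 3 min at 0°; TCA-precipitated radioactivity counted.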

For experiment [2], the system named is EGF-mediated tyrosine phosphorylation in Triton extracts of A-431 cell membranes. Description: Phosphoamino acid analysis of labeled Triton extracts of A-431 cell membranes. The class given is biochemical, human. The conditions noted are these: for Total Phosphoprotein / P-serine radioactivity / P-threonine radioactivity / P-tyrosine radioactivity: 349 nmoles/mg protein; for Total Phosphoprotein: 1/7 aliquot. On the procedure: Triton extracts of A-431 cell membranes, prepared substantially as described previously, containing 37.5 μg protein, were labeled with [γ-^32 P] ATP (5 μM, 5 μCi) for 3 minutes at 0° in the presence and absence of Boc-LeuCH2 Br (349 nmoles/mg protein). Protein samples were hydrolyzed and phosphoamino acids were separated by the following procedure.
After labeling, membrane proteins were treated with 10% trichloroacetic acid (TCA) containing 10 mM sodium pyrophosphate and 100 μg BSA. After incubation for one hour at 0°, the foregoing mixture was centrifuged at 3,000 rpm and the resulting pellet washed 3 times with 10% TCA/10 mM sodium pyrophosphate. After recentrifugation, the final pellet was washed with ethanol, dried under vacuum, and dissolved in 70 μL of 0.1N NaOH prior to transfer to glass test tubes containing 0.5 mL 6N hydrochloric acid. The tubes were sealed under vacuum and samples were hydrolyzed at 100° for one hour. The resulting hydrolysates were lyophilized, resuspended in 30 μL water and electrophoresed on Whatman 3MM paper for 3 hours at 3,000 V, at pH 3.5 in 5% acetic acid/0.5% pyridine. Phosphotyrosine, phosphoserine, and phosphothreonine (10 μg of each) were employed as markers. Following electrophoresis, spots corresponding to the foregoing phosphoamino acids were located by ninhydrin treatment, excised, and bleached with 6% hydrogen peroxide. Radioactivity of the spots was determined by scintillation counting and expressed as cpm. Total phosphoprotein of a 1/7 aliquot of each reaction mixture was determined as previously described.

A further experiment has as its system pp60^src. Description: Immune complex phosphorylation by pp60src immunoprecipitates of RSV-transformed cells. The settings on record: 250 nmoles per mg protein. The format is biochemical, Rous sarcoma virus (RSV). On the procedure:
In this experiment, Boc-LeuCH2 Br was tested as an inhibitor of pp60^src and p130^fps, the tyrosine-specific protein kinases encoded by the transforming genes of RSV and Fujinami sarcoma virus, respectively.
These viral gene products were partially purified by preparation of immune complexes substantially according to the technique described by Collett et al., Proc. Nat. Acad. Sci. USA 75:2021 (1978). In this procedure, immunoprecipitates are prepared by incubation of extracts of virus-transformed cells with tumor-bearing rabbit serum (TBR) and Staphylococcus protein A suspension (for RSV-transformed cells) or anti-gag serum and Staphylococcus protein A suspension (for FSV-transformed cells).
Assay mixtures contained, in a final volume of 70 μL, 100 μg of immune complex protein, 20 mM Hepes, pH 7.4, and 1 mM MnCl2. Phosphorylation was initiated by addition of 1 μM (4 μCi) [γ-^32 P] ATP. After 10 minutes at about 23°, reactions were terminated by pipetting 20 μL aliquots of assay mixture onto 2×2 cm squares of Whatman 3 MM filter paper, which were immediately suspended in 10% TCA/10 mM sodium pyrophosphate. Test mixtures contained 250 nmoles Boc-LeuCH2 Br per mg protein. Controls for the immunoprecipitation procedure were prepared by immunoprecipitating transformed cell extracts with normal serum. Values in parentheses represent specific phosphorylation induced by virus-transformed cells.

With `CC(C)CC(NC(=O)OC(C)(C)C)C(=O)CBr` (centres unmarked) [Boc-LeuCH2 Br], the “% inhibition, EGF Added” value in experiment [1] (400 nmol/mg protein) amounted to 65%; in experiment [1] (477 nmol/mg protein), 72%. The “EGF Added (pmol 32P incorporated/min/mg protein)” value in experiment [1] (400 nmol/mg protein, control 20.2) is 7.0 pmol^32 P incorporated/min/mg; in experiment [1] (477 nmol/mg protein, control 96.2), 27.4 pmol^32 P incorporated/min/mg. The “% inhibition, No EGF Added” value is recorded as 69% in experiment [1] (400 nmol/mg protein) and 74% in experiment [1] (477 nmol/mg protein). Besides, the “No EGF Added (pmol 32P incorporated/min/mg protein)” value in experiment [1] (400 nmol/mg protein, control 7.3) was 2.3 pmol^32 P incorporated/min/mg; in experiment [1] (477 nmol/mg protein, control 21.6) it was 5.6 pmol^32 P incorporated/min/mg. For the same molecule, the “Total Phosphoprotein” value in experiment [2] (EGF absent, control 3408) worked out at 2024 cpm; in experiment [2] (EGF present, control 12204), 5332 cpm. In addition, the P-serine radioactivity in experiment [2] (EGF absent, control 328) stood at 300 cpm; in experiment [2] (EGF present, control 494), 262 cpm. The P-threonine radioactivity in experiment [2] (EGF absent, control 1100) was found to be 1180 cpm; in experiment [2] (EGF present, control 1994), 1270 cpm. Also, the P-tyrosine radioactivity in experiment [2] (EGF absent, control 1152) was determined as 488 cpm; in experiment [2] (EGF present, control 18000), 5554 cpm. The “inhibition of tyrosine phosphorylation (in words)” value in experiment [2] (both the presence and absence of EGF) was “pronounced inhibition of tyrosine phosphorylation”. The “Immune Complex Phosphorylation” value is listed as 7516 cpm in the experiment on pp60^src (pp60 + control serum, no inhibitor 7872) and 10718 cpm in the experiment with pp60^src (pp60src + TBR serum, no inhibitor 12984). In addition, the “Immune Complex Phosphorylation, specific phosphorylation (in parentheses)” value in the experiment with pp60^src (pp60src + TBR serum, no inhibitor 5112) is 3202 cpm.
